Results published in patent publication EP4778932A1 (priority 2023, dated 2025).

Experiments:
Type in all cases: cell-based
[1] = test system: MDA-MB-231, OV90, and NCI-N87 cells; experiment: Tumor cell proliferation inhibition assay of novel ecteinascidin derivatives, summary over the three cell lines; conditions: compared with trabectedin and lurbinectedin
Method: (§1) The cells were cultured overnight in a constant-temperature incubator (37°C, 5% CO2). Ecteinascidin derivative solutions at a maximum concentration of 2 mM were first prepared in DMSO, and serial 1:4 gradient dilutions were performed. 1 µL of each DMSO-prepared dilution was added to 99 µL of PBS containing 10% FBS per well and mixed thoroughly. The diluted solutions (2 µL of diluted solution and 18 µL of PBS containing 10% FBS per well) were then co-incubated with the cells (37°C, 5% CO2) for five days, after which CellTiter-Glo reagent (40 µL per well) was added, and […] values were measured using an i3x microplate reader.

OV90 = experiment: cells; conditions: Homo sapiens, OV-90, 120 h; OV90 cells, five days co-incubation; read-out: IC50 (nM) OV90
Method: as §1, with “MDA-MB-231, OV90, and NCI-N87 cells at defined cell densities (1,500 cells per well, 80 µL volume) were seeded into 96-well plates. The cells” for “The cells”

MDA-MB-231 = experiment: cells; conditions: Homo sapiens, 120 h; MDA-MB-231 cells, five days co-incubation; read-out: IC50 (nM) MDA-MB-231
Method: as §1, with “MDA-MB-231, OV90, and NCI-N87 cells at defined cell densities (1,500 cells per well, 80 µL volume) were seeded into 96-well plates. The cells” for “The cells”

NCI-N87 = experiment: cells; conditions: Homo sapiens, 120 h; NCI-N87 cells, five days co-incubation; read-out: IC50 (nM) NCI-N87
Method: as §1, with “MDA-MB-231, OV90, and NCI-N87 cells at defined cell densities (1,500 cells per well, 80 µL volume) were seeded into 96-well plates. The cells” for “The cells”

| SMILES | in-vitro cytotoxic activities [1] | IC50 (OV90) | IC50 (MDA-MB-231) | IC50 (NCI-N87) |
| --- | --- | --- | --- | --- |
| COc1cc2c(cc1N(C)C(=O)CO)CCN[C@]21CS[C@@H]2c3c(OC(C)=O)c(C)c4c(c3[C@H](COC1=O)N1[C@@H]2[C@H]2c3c(cc(C)c(OC)c3O)C[C@@H]([C@@H]1C#N)N2C)OCO4 [T17] | superior to or comparable to those of trabectedin and lurbinectedin | < 1 nM | < 1 nM | < 1 nM |
| COc1cc(N)cc2c1[C@@]1(CS[C@@H]3c4c(OC(C)=O)c(C)c5c(c4[C@H](COC1=O)N1[C@@H]3[C@H]3c4c(cc(C)c(OC)c4O)C[C@@H]([C@@H]1C#N)N3C)OCO5)NCC2 [T1] | superior to or comparable to those of trabectedin and lurbinectedin | < 1 nM | < 1 nM | < 1 nM |
| COc1cc2c(cc1N)C1(CC1)CN[C@]21CS[C@@H]2c3c(OC(C)=O)c(C)c4c(c3[C@H](COC1=O)N1[C@@H]2[C@H]2c3c(cc(C)c(OC)c3O)C[C@@H]([C@@H]1C#N)N2C)OCO4 [P36] | superior to or comparable to those of trabectedin and lurbinectedin | < 1 nM | < 1 nM | < 1 nM |
| COc1cc2c(cc1NC(=O)[C@H]1C[C@H](O)C1)CCN[C@]21CS[C@@H]2c3c(OC(C)=O)c(C)c4c(c3[C@H](COC1=O)N1[C@@H]2[C@H]2c3c(cc(C)c(OC)c3O)C[C@@H]([C@@H]1C#N)N2C)OCO4 [P75] | superior to or comparable to those of trabectedin and lurbinectedin | < 1 nM | < 1 nM | < 1 nM |
| COc1cc2c(cc1NC(=O)C(O)C1CC1)CCN[C@]21CS[C@@H]2c3c(OC(C)=O)c(C)c4c(c3[C@H](COC1=O)N1[C@@H]2[C@H]2c3c(cc(C)c(OC)c3O)C[C@@H]([C@@H]1C#N)N2C)OCO4 (stereo partly shown) [P58] | superior to or comparable to those of trabectedin and lurbinectedin | < 1 nM | < 1 nM | < 1 nM |
| COc1c(C)cc2c(c1O)[C@@H]1[C@@H]3[C@@H]4SC[C@]5(NCCc6cc(NC(=O)C7(O)CC7)c(F)cc65)C(=O)OC[C@@H](c5c6c(c(C)c(OC(C)=O)c54)OCO6)N3[C@@H](C#N)[C@H](C2)N1C [T4] | superior to or comparable to those of trabectedin and lurbinectedin | < 1 nM | < 1 nM | < 1 nM |
| COc1c(C)cc2c(c1O)[C@@H]1[C@@H]3[C@@H]4SC[C@]5(NC[C@H](O)c6cc(N)ccc65)C(=O)OC[C@@H](c5c6c(c(C)c(OC(C)=O)c54)OCO6)N3[C@@H](C#N)[C@H](C2)N1C [P10] | superior to or comparable to those of trabectedin and lurbinectedin | < 1 nM | < 1 nM | < 1 nM |
| COc1c(C)cc2c(c1O)[C@@H]1[C@@H]3[C@@H]4SC[C@]5(NCCc6c5ccc(NC(=O)CO)c6OC)C(=O)OC[C@@H](c5c6c(c(C)c(OC(C)=O)c54)OCO6)N3[C@@H](C#N)[C@H](C2)N1C [P170] | superior to or comparable to those of trabectedin and lurbinectedin | < 1 nM | < 1 nM | < 1 nM |
| COc1cc2c(cc1N)[C@@H](O)CN[C@]21CS[C@@H]2c3c(OC(C)=O)c(C)c4c(c3[C@H](COC1=O)N1[C@@H]2[C@H]2c3c(cc(C)c(OC)c3O)C[C@@H]([C@@H]1C#N)N2C)OCO4 [P13] | superior to or comparable to those of trabectedin and lurbinectedin | < 1 nM | < 1 nM | < 1 nM |
| COc1cc2c(cc1N)[C@H](O)CN[C@]21CS[C@@H]2c3c(OC(C)=O)c(C)c4c(c3[C@H](COC1=O)N1[C@@H]2[C@H]2c3c(cc(C)c(OC)c3O)C[C@@H]([C@@H]1C#N)N2C)OCO4 [P12] | superior to or comparable to those of trabectedin and lurbinectedin | < 1 nM | < 1 nM | < 1 nM |
